From ChEMBL document CHEMBL1149730, “Constituents of Eriobotrya japonica. A study of their antiviral properties” (J Nat Prod, 1992) come the findings set out here.

In brackets after ≈: the same amount, converted by molar mass. Activity calls are given as the source filed them. The calls are words filed in the database; no cut-off is given here. Some results are limits rather than exact numbers.

For series [1], the target named is Human immunodeficiency virus type 1 reverse transcriptase (Human immunodeficiency virus 1) (UniProt Q72547). The series can be described thus: Inhibition of HIV1 reverse transcriptase assessed as [3H]dTTP incorporation up to 50 ug/ml by liquid scintillation counting.
The nature of series [2]: Cytotoxicity against human HeLa Ohio cells assessed as maximum non-toxic dose after 24 hrs by neutral red staining. It is filed as cell-based. Conditions: read-out: Activity.
Series [3] relates to rhinovirus A1B. Kind of series: Antiviral activity against HRV1B replication in human Hela Ohio cells assessed as virus-induced cytopathic effect at 20 ug/ml after 24 hrs at 33 degC by light microscopy. Format: functional, Human rhinovirus 1B.
A short description of series [4]: Cytotoxicity against human HeLaS3 cells assessed as maximum non-toxic dose after 24 hrs by neutral red staining. It is filed as cell-based, HeLa S3. Conditions: read-out: Activity.
Series [5] deals with Sindbis virus. The series can be described thus: Antiviral activity against Sindbis virus replication in human HelaS3 cells assessed as virus-induced cytopathic effect at 20 ug/ml after 24 hrs at 37 degC by light microscopy. Format: functional. A general note: Protection from cytopathic effect is a common read-out in antiviral testing.
Series [6] in a line: Cytotoxicity against human C8166 cells after 5 to 7 days by MTT-formazan method. It is filed as cell-based. Conditions: read-out: TC50 (the source's name). (Formazan colour is commonly taken as a measure of viable cells.)
The test system of series [7] is Human immunodeficiency virus 1. Kind of series: Antiviral activity against HIV1 3B replication in human C8166 cells at 100 ug/ml after 5 to 7 days by MTT-formazan method. It is filed as functional.
The test system of series [8] is Human immunodeficiency virus 1. The series can be described thus: Antiviral activity against HIV1 3B replication in human C8166 cells at 20 ug/ml after 5 to 7 days by MTT-formazan method. Format: functional.
In series [9] the test system is Human immunodeficiency virus 1. Kind of series: Antiviral activity against HIV1 3B replication in human C8166 cells at 40 ug/ml after 5 to 7 days by MTT-formazan method. Format: functional.
The subject of series [10] is Human immunodeficiency virus 1. The series can be described thus: Antiviral activity against HIV1 3B replication in human C8166 cells at 8 ug/ml after 5 to 7 days by MTT-formazan method. Format: functional.
Series [11] has as its system rhinovirus A1B. Kind of series: Antiviral activity against HRV1B replication in human Hela Ohio cells assessed as virus-induced cytopathic effect at 50 ug/ml after 24 hrs at 33 degC by light microscopy. Format: functional, Human rhinovirus 1B.
Series [12] concerns Sindbis virus. The series can be described thus: Antiviral activity against Sindbis virus replication in human HelaS3 cells assessed as virus-induced cytopathic effect at 50 ug/ml after 24 hrs at 37 degC by light microscopy. It is filed as functional.
Series [13] deals with Human immunodeficiency virus 1. Kind of series: Antiviral activity against HIV1 3B replication in human C8166 cells at 0.8 ug/ml after 5 to 7 days by MTT-formazan method. It is filed as functional.
The subject of series [14] is Human immunodeficiency virus 1. The series can be described thus: Antiviral activity against HIV1 3B replication in human C8166 cells at 4 ug/ml after 5 to 7 days by MTT-formazan method. It is filed as functional.
The test system of series [15] is Human immunodeficiency virus 1. Kind of series: Antiviral activity against HIV1 3B replication in human C8166 cells at 100 uM after 5 to 7 days by MTT-formazan method. Format: functional.
In series [16] the test system is Human immunodeficiency virus 1. Kind of series: Antiviral activity against HIV1 3B replication in human C8166 cells at 0.016 ug/ml after 5 to 7 days by MTT-formazan method. Format: functional.
For series [17], the system named is Sindbis virus. The series can be described thus: Antiviral activity against Sindbis virus replication in human HelaS3 cells assessed as virus-induced cytopathic effect at 4 ug/ml after 24 hrs at 37 degC by light microscopy. It is filed as functional.
In series [18] the test system is rhinovirus A1B. Kind of series: Antiviral activity against HRV1B replication in human Hela Ohio cells assessed as inhibition of virus-induced cytopathic effect at 4 ug/ml after 24 hrs at 33 degC by light microscopy. It is filed as functional, Human rhinovirus 1B. Conditions: Rhinovirus A.
Series [19] relates to rhinovirus A1B. Kind of series: Antiviral activity against HRV1B replication in human Hela Ohio cells assessed as inhibition of virus-induced cytopathic effect at 0.8 ug/ml after 24 hrs at 33 degC by light microscopy. Conditions: Human rhinovirus 1B. It is filed as functional, organism-based.

In the case of `C[C@@H]1CC[C@]2(C(=O)O)CC[C@]3(C)C(=CC[C@@H]4[C@@]5(C)C[C@@H](O)[C@H](O)[C@@](C)(COC(=O)/C=C\c6ccc(O)cc6)[C@@H]5CC[C@]43C)[C@@H]2[C@]1(C)O`, in series [1], the result was inactive. Also, the MNTC at 24 h in [2] and in [4] was 20 µg/mL in each case. Further, the Activity in the series on rhinovirus A1B [3] came to 100%; in the series with Sindbis virus [5], 100%; in series [7], 0%; in series [8], 0%. Further, the CC50 in [6] came to 50 µg/mL (≈ 76.8 µM).

As for `C[C@@H]1CC[C@]2(C(=O)O)CC[C@]3(C)C(=CC[C@@H]4[C@@]5(C)C[C@@H](O)[C@H](O)[C@@](C)(CO)[C@@H]5CC[C@]43C)[C@@H]2[C@]1(C)O`, the Activity in series [9] is given as 0%; in series [10], 1%; in the series with rhinovirus A1B [11], 100%; in the series with Sindbis virus [12], 100%. Further, the outcome in [1] was inactive. The MNTC at 24 h in [2] and in [4] was 50 µg/mL in each case. The CC50 in series [6] amounted to 20 µg/mL (≈ 39.6 µM).

Regarding `C[C@@H]1CC[C@]2(C(=O)O)CC[C@]3(C)C(=CC[C@@H]4[C@@]5(C)C[C@@H](O)[C@H](O)[C@@](C)(COC(=O)/C=C/c6ccc(O)cc6)[C@@H]5CC[C@]43C)[C@@H]2[C@]1(C)O`, the outcome in series [1] was inactive. In addition, the MNTC at 24 h in series [2] was found to be 50 µg/mL; in series [4] it was 20 µg/mL. Besides, the Activity in the series with rhinovirus A1B [11] came out at 100%; in the series with Sindbis virus [5] it was 100%; in [7], 0%; in series [8], 0%. Besides, in series [6], the CC50 is 30 µg/mL (≈ 46.1 µM).

In the case of `C[C@@H]1CC[C@]2(C(=O)O)CC[C@]3(C)C(=CC[C@@H]4[C@@]5(C)CC[C@H](O)C(C)(C)[C@@H]5[C@H](O)C[C@]43C)[C@@H]2[C@]1(C)O`, the Activity in series [13] is recorded as 1%; in the series on rhinovirus A1B [3], 100%; in the series on Sindbis virus [5], 100%; in [14], 0%. Further, the result in [1] was inactive. The MNTC at 24 h in series [2] and in series [4] was 20 µg/mL in each case. The CC50 in series [6] is 2 µg/mL (≈ 4.09 µM).

Turning to `C[C@@H]1CC[C@]2(C(=O)O)CC[C@]3(C)C(=CC[C@@H]4[C@@]5(C)C[C@@H](O)[C@@H](O)C(C)(C)[C@@H]5CC[C@]43C)[C@@H]2[C@]1(C)O` [EUSCAPHIC ACID], the Activity is 0% in series [9], 1% in series [10], 100% with rhinovirus A1B [11] and 100% in the series with Sindbis virus [5]. Besides, the result in series [1] was inactive. Besides, the MNTC at 24 h in series [2] was found to be 50 µg/mL; in series [4] it was 20 µg/mL. Further, in series [6], the CC50 is 20 µg/mL (≈ 40.9 µM).

On to `C[C@@H]1CC[C@]2(C(=O)O)CC[C@]3(C)C(=CC[C@@H]4[C@@]5(C)CC[C@H](OC(=O)/C=C/c6ccc(O)cc6)[C@@](C)(CO)[C@@H]5CC[C@]43C)[C@@H]2[C@]1(C)O`, for which the outcome in series [1] was inactive. Also, the MNTC at 24 h in series [2] and in series [4] was 20 µg/mL in each case. The Activity with rhinovirus A1B [3] is 100%; in the series on Sindbis virus [5] it was 100%; in series [7], 0%; in series [8], 0%. The CC50 in series [6] is 30 µg/mL (≈ 47.3 µM).

`Cc1cn([C@H]2C[C@H](N=[N+]=[N-])[C@@H](CO)O2)c(=O)[nH]c1=O` [ZIDOVUDINE]: the Activity in series [15] is on record as 100%; in series [16] it was 49%. The CC50 in [6] was > 1000 µg/mL.

As for `C[C@@H]1CC[C@]2(C(=O)O)CC[C@]3(C)C(=CC[C@@H]4[C@@]5(C)C[C@@H](O)[C@H](OC(=O)/C=C/c6ccc(O)c(O)c6)C(C)(C)[C@@H]5CC[C@]43C)[C@@H]2[C@]1(C)O`, the outcome (in [1]; with rhinovirus A1B [19]) was inactive. In addition, the MNTC at 24 h in series [2] was 20 µg/mL; in series [4], 4 µg/mL. For the same molecule, the Activity in the series with rhinovirus A1B [3] is 50%; with Sindbis virus [17], 100%; in [14] it was 1%. Also, the inhibition at 4 µg/mL with rhinovirus A1B [18] was < 25%. Moreover, in [6], the CC50 stood at 10 µg/mL (≈ 15.4 µM).

By inhibition is commonly meant how much of the control response was suppressed.
